Data taken from US4962096A, “Heterocyclic glycerol derivatives and their use as anti-hypertensive agents” (Nippon Chemiphar Co., Ltd., priority 1987, dated 1990).

Tests used:
[1] = tested on: PAF-induced platelet aggregation; assay: Inhibitory effect on PAF-induced platelet aggregation; format: cell-based; conditions: rabbit PRP; PAF 1×10^-8 M, test concentration not readable
Procedure: In the same manner as above, a platelet rich plasma (PRP) and a platelet poor plasma (PPP) were prepared for performing the following experiment.
(§1) PRP was diluted with PPP to give a sample containing platelets at 300,000/mm^3.
10 μl of a test solution was added to 180 μl of PRP. To the resulting mixture was added 10 μl of a solution of a commercially available PAF (No.P-4904, available from Sigma Corp.) to give a concentration of 1×10^-8 M, and aggregation was observed. For the preparation of the test solution and the PAF solution, a saline solution containing 0.25% bovine serum albumin was employed.
The effect of the test sample for suppressing aggregation was obtained in terms of a degree of suppression of the maximum aggregation in the control PRP caused by the PAF.

platelet = assay: Platelet aggregation action in platelet rich plasma; format: cell-based; conditions: rabbit PRP, 300,000 platelets/mm^3, final concentration 2×10^-10 to 2×10^-4 M, unit inferred
Procedure: A male Japanese white rabbit was anesthetized by pentobarbital, and a blood was collected in aqueous 3.13% sodium citrate solution at its carotid. The blood containing 1/10 volume ratio of the sodium citrate solution was treated in a conventional manner to give a platelet rich plasma (PRP) and a platelet poor plasma (PPP) for performing the following experiment.
as §1
Aggregation of platelet was determined by means of Platelet Aggregation Tracer PAT-4A(available from Niko Bioscience Co., Ltd., Japan). 10 μl of a test solution was added to 190 μl of PRP to give a final concentration of 2×10^-10 to 2×10^-4 M, and an aggregation curve is recorded. For the preparation of the test solution, a saline solution containing 0.25% bovine serum albumin.
According to the aggregation curve obtained for each of the following compound of the present invention, following EC50 value was obtained.

Male Wistar rats = assay: Blood pressure reducing action: intravenous injection (MABP50); format: in vivo, rat; conditions: anesthetized male Wistar rats, injection in saline with 0.25% bovine serum albumin, from dose-response curve; for ED (50 mmHg): Rattus norvegicus, iv, read-out: MABP50 (dose required for reducing a mean blood pressure by 50 mmHg)
Procedure: Male Wistar rats (mean body weight: 420 g) were anesthetized by intraperitoneal injection of 50 mg/kg of pentobarbital sodium, and their blood pressures were measured at left femoral artery. Subsequently, a compound to be tested was dissolved in a saline solution containing 0.25% bovine serum albumin and injected into the rat through the right femoral artery.
A dose-response curve was prepared from the obtained values for each of the following compounds of the present invention to determine a dose required for reducing a mean blood pressure by 50 mmHg (MABP50).

[2] = tested on: Male spontaneously hypertensive rats; assay: Blood pressure reducing action: oral administration; format: in vivo, rat
Procedure: Male spontaneously hypertensive rats (average body weight: 359 g) were anesthetized with ether. Blood pressure was measured for each rat through cannulation at its left femoral artery. A compound to be tested was dissolved in a distilled water and the resulting aqueous solution was administered orally.

[3] = Oryctolagus cuniculus, Platelet

Row | EC50 (platelet; [3]) [nM] | Molecule | ED (50 mmHg) (Male Wistar rats) [µg/kg] | other results
1 |  | 2-Acetyloxy-3-hexadecyloxypropyl 1-(1-fluorophenyl)-2-methylisoquinolinio-3-ylmethyl phosphate |  | degree of suppression of the maximum aggregation caused by the PAF [1]: 100%
2 | 670 | CCCCCCCCCCCCCCCCOCC(COP(=O)([O-])OCC1CSC(c2ccccc2)[N+]1(C)C)OC(C)=O (single isomer, unassigned) [S(Product A), 2-acetyloxy-3-hexadecyloxypropyl 3,3-dimethyl-2-phenyl-1,3-thiazolidinio-4-ylmethyl phosphate] |  | MABP50 (dose required for reducing a mean blood pressure by 50 mmHg) (Male Wistar rats): 160 ng/kg
3 |  | CCCCCCCCCCCCCCCCOCC(COP(=O)([O-])OCC1CSC(c2ccccc2)[N+]1(C)C)OC(C)=O (single isomer, unassigned) [S(Product B), 2-acetyloxy-3-hexadecyloxypropyl 3,3-dimethyl-2-phenyl-1,3-thiazolidinio-4-ylmethyl phosphate] |  | EC50 (platelet): 740 nM; MABP50 (dose required for reducing a mean blood pressure by 50 mmHg) (Male Wistar rats): 350 ng/kg
4 | 10 | CCCCCCCCCCCCCCCCOCC(COP(=O)([O-])OCC1CCCC[N+]1(C)C)OC(C)=O (stereo not drawn) [Compound E, 2-acetyloxy-3-hexadecyloxypropyl 1,1-dimethylpiperidinio-2-ylmethyl phosphate] | 0.132 | 
5 | 0.5 | CCCCCCCCCCCCCCCCOCC(COP(=O)([O-])OCC1CCC[N+]1(C)C)OC(C)=O (stereo not drawn) [D, 2-acetyloxy-3-hexadecyloxypropyl 1,1-dimethylpyrrolidinio-2-ylmethyl phosphate] | 0.024 | 
6 | 1.5 | CCCCCCCCCCCCCCCCOCC(COP(=O)([O-])OCC1CCC[N+](C)(C)C1)OC(C)=O (stereo not drawn) [F, 2-acetyloxy-3-hexadecyloxypropyl 1,1-dimethylpiperidinio-3-ylmethyl phosphate] | 0.058 | 
7 | 90 | CCCCCCCCCCCCCCCCOCC(COP(=O)([O-])OCC1CC[N+](C)(C)CC1)OC(C)=O (stereo not drawn) [G, 2-acetyloxy-3-hexadecyloxypropyl 1,1-dimethylpiperidinio-4-ylmethyl phosphate] | 0.97 | 
8 | 2.4 | CCCCCCCCCCCCCCCCOCC(COP(=O)([O-])OCCC1CCC[N+]1(C)C)OC(C)=O (stereo not drawn) [H, 2-acetyloxy-3-hexadecyloxypropyl 2-(1,1-dimethylpyrrolidinio-2-yl)ethylphosphate] | 0.058 | 
9 |  | CCCCCCCCCCCCCCCCOC(C)C(COP(=O)([O-])OC(c1ccccc1)C1CCC[N+]1(C)C)OCc1ccccc1 (stereo not drawn) [I, 2-Benzyloxy-3-hexadecyloxybutyl erythro-1,1-dimethylpyrrolidinio-2-ylphenylmethyl phosphate] |  | degree of suppression of the maximum aggregation caused by the PAF [1]: 100%
10 |  | CCCCCCCCCCCCCCCCOCC(COP(=O)([O-])OC(c1ccccc1)C1CCC[N+]1(C)C)OCc1ccccc1 (stereo not drawn) [J, 2-Benzyloxy-3-hexadecyloxypropyl erythro-1,1-dimethylpyrrolidinio-2-ylphenylmethyl phosphate] |  | degree of suppression of the maximum aggregation caused by the PAF [1]: 99%
11 |  | CCCCCCCCCCCCCCCCOCC(COP(=O)([O-])OC(c1ccccc1)C1CCC[N+]1(C)C)OCc1ccccc1 (stereo not drawn) [K, 2-Benzyloxy-3-hexadecyloxypropyl threo-1,1-dimethylpyrrolidinio-2-ylphenylmethyl phosphate] |  | degree of suppression of the maximum aggregation caused by the PAF [1]: 73%
12 |  | CCCCCCCCCCCCCCCCOCC(COP(=O)([O-])OCC1CCCC[N+]1(C)C)OCc1ccccc1 (stereo not drawn) [L, 2-Benzyloxy-3-hexadecyloxypropyl 1,1-dimethylpiperidinio-2-ylmethyl phosphate] |  | degree of suppression of the maximum aggregation caused by the PAF [1]: 55%
13 |  | CCCCCCCCCCCCCCCCOCC(COP(=O)([O-])OC(c1ccccc1)C1CCC[N+]1(C)C)OC(C)=O (stereo not drawn) [M, 2-Acetyloxy-3-hexadecyloxypropyl erythro-1,1-dimethylpyrrolidinio-2-ylphenylmethyl phosphate] |  | degree of suppression of the maximum aggregation caused by the PAF [1]: 100%
14 | 180 | CCCCCCCCCCCCCCCCOCC(COP(=O)([O-])OCC1Cc2ccccc2C[N+]1(C)C)OC(C)=O (stereo not drawn) [O, 2-acetyloxy-3-hexadecyloxypropyl 2,2-dimethyl-1,2,3,4-tetrahydroisoquinolinio-3-ylmethyl phosphate] | 3.2 | 
15 | 50 | CCCCCCCCCCCCCCCCOCC(COP(=O)([O-])OCC1CCc2ccccc2[N+]1(C)C)OC(C)=O (stereo not drawn) [P, 2-acetyloxy-3-hexadecyloxypropyl 1,1-dimethyl-1,2,3,4-tetrahydroquinolinio-2-ylmethyl phosphate] | 0.11 | 
16 | 0.52 | CCCCCCCCCCCCCCCCOCC(COP(=O)([O-])OCC1CSC[N+]1(C)C)OC(C)=O (stereo not drawn) [Q, 2-acetyloxy-3-hexadecyloxypropyl 3,3-dimethyl-1,3-thiazolidinio-4-ylmethyl phosphate] | 0.032 | 
17 |  | CCCCCCCCCCCCCCCCOCC(COP(=O)([O-])OCC1=CCC[N+](C)(C)C1)OC(C)=O (stereo not drawn) [R, 2-acetyloxy-3-hexadecyloxypropyl 1,1-dimethyl-1,2,5,6-tetrahydropyridinio-3-ylmethyl phosphate] | 0.024 | 
18 | 3.2 | CCCCCCCCCCCCCCCCOCC(COP(=O)([O-])OCCc1sc[n+](C)c1C)OC(C)=O (stereo not drawn) [T, 2-acetyloxy-3-hexadecyloxypropyl 3,4-dimethylthiazolio-5-ylethyl phosphate] | 0.00023 | Change of Blood Pressure About 30 min. after Administration ([2]; 10 mg/kg): -35.3 mmHg
19 |  | CCCCCCCCCCCCCCCCOCC(COP(=O)([O-])OCCc1ccc[n+](C)c1)OC(C)=O (stereo not drawn) [U, 2-acetyloxy-3-hexadecyloxypropyl 1-methylpyridinio-3-ylethyl phosphate] |  | EC50 (platelet): 85 nM; MABP50 (dose required for reducing a mean blood pressure by 50 mmHg) (Male Wistar rats): 195 ng/kg
20 | 77 | CCCCCCCCCCCCCCCCOC(C)C(COP(=O)([O-])OCC1=CCC[N+](C)(C)C1)OC(C)=O (stereo not drawn) [V, 2-acetyloxy-3-hexadecyloxybutyl 1,1-dimethyl-1,2,5,6-tetrahydropyridinio-3-ylmethyl phosphate] | 0.64 | Change of Blood Pressure About 30 min. after Administration ([2]; 3 mg/kg): -49.0 mmHg
21 | 73 | CCCCCCCCCCCCCCCCOC(C)C(COP(=O)([O-])OCCc1sc[n+](C)c1C)OC(C)=O (stereo not drawn) [W, 2-acetyloxy-3-hexadecyloxybutyl 3,4-dimethylthiazolio-5-ylethyl phosphate] | 0.067 | Change of Blood Pressure About 30 min. after Administration ([2]; 1 mg/kg): -36.0 mmHg

Row | Molecule | EC50 (platelet; [3]) [nM] | ED (50 mmHg) (Male Wistar rats) [µg/kg] | other results
22 | CCCCCCCCCCCCCCCCOCC(COP(=O)([O-])OC1C[N+]2(C)CCC1CC2)OC(C)=O (stereo not drawn) [A, 2-acetyloxy-3-hexadecyloxypropyl 1-methyl-1-azoniabicyclo[2,2,2]-3-octyl phosphate] | 0.76 | 0.005 | 
23 | CCCCCCCCCCCCCCCCOCC(COP(=O)([O-])OC1CC2CCC(C1)[N+]2(C)C)OC(C)=O (stereo not drawn) [B, 2-acetyloxy-3-hexadecyloxypropyl endo-8,8-dimethyl-8-azoniabicyclo[3,2,1]-3-octyl phosphate] | 2.3 | 0.12 | 
24 | CCCCCCCCCCCCCCCCOC(C)C(COP(=O)([O-])OC1C[N+]2(C)CCC1CC2)OC(C)=O (stereo not drawn) [C, 2-acetyloxy-3-hexadecyloxybutyl 1-methyl-1-azoniabicyclo[2,2,2]-3-octylphosphate] | 5.2 | 0.099 | Change of Blood Pressure About 30 min. after Administration ([2]; 3 mg/kg): -64.5 mmHg
